Data published in PMC8279417 (Journal of Medicinal Chemistry, 2021).
Where two headings read alike, the source gives them in different places.

What was measured:
[1] = test system: MCF-7TamR cells; test: Crystal violet assay, MCF-7TamR cells; format: cell-based
[2] = biological target: T1, ERα (Homo sapiens, UniProt P03372); details: for IC50: read-out: TR-FRET ERα IC50, displacement of fluorescent-labeled E2 from the LBD of ERα; for RBA ERα: relative binding affinity compared to E2 (100%)
T1 sequence (P03372 311-547 limits assumed): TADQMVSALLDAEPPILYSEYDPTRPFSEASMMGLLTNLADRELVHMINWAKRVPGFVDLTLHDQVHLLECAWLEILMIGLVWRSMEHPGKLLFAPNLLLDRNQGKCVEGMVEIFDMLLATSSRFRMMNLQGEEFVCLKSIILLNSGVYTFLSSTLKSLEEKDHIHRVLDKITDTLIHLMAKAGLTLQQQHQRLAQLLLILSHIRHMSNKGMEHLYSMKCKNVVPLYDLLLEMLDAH
Protocol: (§1) LanthaScreen TR-FRET ER alpha/beta competitive binding assays (Invitrogen, Carlsbad) were used to investigate the binding affinity to the isolated receptors according to the manufacturer′s protocols. Measurement was performed with an Enspire multimode plate reader (PerkinElmer Life Sciences, Waltham). Calculations were performed with Excel (Microsoft, Redmond) and GraphPad Prism (GraphPad Software, San Diego).

[3] = biological target: T2, ERβ (Homo sapiens, UniProt Q92731); details: for IC50: read-out: TR-FRET ERβ IC50, displacement of fluorescent-labeled E2 from the LBD of ERβ; for RBA ERβ: relative binding affinity compared to E2 (100%)
Target sequence in this assay (Q92731 264-498 limits assumed): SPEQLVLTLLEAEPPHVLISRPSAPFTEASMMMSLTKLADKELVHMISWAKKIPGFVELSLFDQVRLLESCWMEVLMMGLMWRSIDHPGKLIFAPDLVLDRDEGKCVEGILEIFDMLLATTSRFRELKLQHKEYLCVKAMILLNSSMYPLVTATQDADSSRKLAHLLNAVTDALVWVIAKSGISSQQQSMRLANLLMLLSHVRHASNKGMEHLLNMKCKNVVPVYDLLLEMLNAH
Protocol: as §1

[4] = biological target: T3, ERα (Homo sapiens, UniProt P03372); test: Luciferase reporter gene assay (transactivation), U2OS cells transfected with pSG5-ERα; format: cell-based; details: inhibition of E2-induced (0.03 nM) transactivation
T3 sequence (P03372 1-595): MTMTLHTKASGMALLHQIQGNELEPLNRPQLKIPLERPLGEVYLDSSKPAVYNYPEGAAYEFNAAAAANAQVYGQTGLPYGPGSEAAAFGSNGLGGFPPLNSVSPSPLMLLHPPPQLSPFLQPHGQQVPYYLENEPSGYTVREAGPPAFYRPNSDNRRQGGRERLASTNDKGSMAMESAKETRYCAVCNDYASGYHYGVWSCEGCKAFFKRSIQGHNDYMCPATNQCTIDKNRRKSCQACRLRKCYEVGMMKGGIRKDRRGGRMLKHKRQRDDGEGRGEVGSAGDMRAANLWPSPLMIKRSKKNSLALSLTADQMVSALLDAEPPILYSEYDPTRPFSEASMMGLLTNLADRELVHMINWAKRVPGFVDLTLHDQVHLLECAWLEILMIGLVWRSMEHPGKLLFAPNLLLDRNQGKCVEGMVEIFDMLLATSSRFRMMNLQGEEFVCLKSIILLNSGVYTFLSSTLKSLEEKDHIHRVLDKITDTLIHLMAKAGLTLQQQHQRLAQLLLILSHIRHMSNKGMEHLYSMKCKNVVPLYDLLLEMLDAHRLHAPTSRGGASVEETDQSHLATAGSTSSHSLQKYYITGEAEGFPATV

[5] = biological target: T3, ERα; test: In-Cell Western immunoassay, ERα levels in MCF-7 cells; format: cell-based; details: for % ERα remaining [1 μM]: MCF-7 cells, 24 h, compared to the solvent control (DMSO)
Protocol: Degradation was evaluated with the CellTagTM 700 In-Cell Western kit (LI-COR, Lincoln) according to the manufacturer’s protocol. MCF-7 cells were treated, and calculation was performed as previously described.[24]

[6] = biological target: T2, ERβ; test: Luciferase reporter gene assay (transactivation), U2OS cells transfected with pSG5-ERβ; format: cell-based; details: inhibition of E2-induced (0.3 nM) transactivation
Target sequence in this assay (Q92731 whole entry, the tested form may be a part): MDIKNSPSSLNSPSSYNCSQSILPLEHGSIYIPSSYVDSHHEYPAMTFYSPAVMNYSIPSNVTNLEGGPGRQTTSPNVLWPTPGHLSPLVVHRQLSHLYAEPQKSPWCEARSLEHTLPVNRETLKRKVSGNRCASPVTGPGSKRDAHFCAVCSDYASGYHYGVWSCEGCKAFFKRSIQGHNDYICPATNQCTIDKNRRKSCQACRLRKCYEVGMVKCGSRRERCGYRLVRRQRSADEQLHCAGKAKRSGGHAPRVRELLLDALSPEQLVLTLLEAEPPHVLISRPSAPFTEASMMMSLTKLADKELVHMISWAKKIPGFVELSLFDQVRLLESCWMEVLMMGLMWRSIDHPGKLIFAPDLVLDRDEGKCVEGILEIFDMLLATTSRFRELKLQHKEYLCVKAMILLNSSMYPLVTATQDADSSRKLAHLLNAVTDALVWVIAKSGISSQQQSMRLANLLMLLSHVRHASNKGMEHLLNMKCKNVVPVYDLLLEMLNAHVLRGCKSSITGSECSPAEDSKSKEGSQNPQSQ

[7] = test system: COS-7 cells; test: Cellular uptake into COS-7 cells (fluorometry, related to protein content); format: in vitro ADME, African green monkey; details: 10 μM, after 4 h, nmol compound/mg protein
Protocol: (§2) The compounds were incubated at a concentration of 10 μM with either MCF-7 or COS-7 cells, and the intracellular amount, determined by fluorometry, was related to the protein content.[42]
(§3) The determination of the cellular uptake in MCF-7 and COS-7 cells was performed as already described.[24] Measurement was conducted with the Enspire multimode plate reader.

[8] = test system: MDA-MB-231 cells; test: Crystal violet assay, MDA-MB-231 cells; format: cell-based
[9] = test system: MCF-7 cells; test: Cellular uptake into MCF-7 cells (fluorometry, related to protein content); format: in vitro ADME; details: 10 μM, after 4 h (saturation), nmol compound/mg protein
Protocol: as §2, §3

[10] = biological target: T1, ERα; test: TR-FRET coactivator (PGC-1 peptide) recruitment assay, ERα LBD; format: biochemical; details: E2 4 nM; for IC50: read-out: inhibition of coactivator recruitment IC50, ERα
Protocol: drug concentrations: 5 nM to 3 μM) after an incubation time of 10 or 30 min.
Coactivator recruitment was tested using the LanthaScreen® TR-FRET ERα coactivator assay. The binding
of the fluorescein-labeled PGC1a coactivator peptide to the ERα LBD protein labeled with terbium was

[11] = biological target: T2, ERβ; details: E2 34 nM, incubation time 30 min; for IC50: read-out: inhibition of coactivator recruitment IC50, ERβ
Target sequence in this assay (Q92731 whole entry, the tested form may be a part): as above

[12] = 0.5 mM, methanol/2× PBS (75:25), 37 °C, 72 h
Description: For the interpretation of the biological results, it is necessary to obtain information about the isomerization by simulating physiological conditions.

[13] = test system: MCF-7 cells; test: Crystal violet assay, MCF-7 cells; format: cell-based; details: for time to cytocidal effects, MCF-7: time-dependent experiment
[14] = MCF7, read-out: % efficacy [1 μM], downregulation of ERα compared to fulvestrant (100%), MCF-7, 1 μM

Row | Compound | T/Ccorr MCF-7TamR [1] | IC50 [2] [nM] | RBA ERα [2] [%] | IC50 [3] [nM] | RBA ERβ [3] [%] | IC50 [4] [nM] | % ERα remaining [1 μM] [5] [%] | IC50 [6] [nM] | Emax at 1 µM [5, 14] [%] | further results
1 | CCC(=C(c1ccc(O)cc1)c1ccc(/C=C/C(=O)NCCCCCCNC(=O)CCc2nc3cc(OC)ccc3[nH]2)cc1)c1ccccc1 (mixture of isomers) [Compound 38, (E)-3-[4-((E/Z)-1-(4-Hydroxyphenyl)-2-phenylbut-1-enyl)phenyl]-N-[6-(3-(5-methoxy-1H-benzo[d]imidazol-2-yl)propanamido)hexyl]acrylamide] | about 40% | 2.61 ± 2.25 | 12.6 | 5.22 ± 0.65 | 14.3 | 9.4 ± 2.7 | 101.8 ± 1.9 | 9 ± 3.3 | – | –
2 | CCC(=C(c1ccc(O)cc1)c1ccc(/C=C/C(=O)NCCCNC(=O)CCCn2c(=S)[nH]c3ccccc3c2=O)cc1)c1ccccc1 (mixture of isomers) [Compound 15] | about 40% | 4.01 ± 1.9 | 8.2 | 12.6 ± 4.8 | 5.9 | 30.2 ± 14.3 | – | 4.1 ± 0.6 | 60 | cellular uptake, COS-7 cells [7]: 1.6 nmol/mg; T/Ccorr MDA-MB-231 [8]: 20%; cellular uptake, MCF-7 cells [9]: 2.8 nmol/mg
3 | CCC(=C(c1ccc(O)cc1)c1ccc(/C=C/C(=O)NCCCCCNC(=O)CCc2nc3cc(O)ccc3[nH]2)cc1)c1ccccc1 (mixture of isomers) [Compound 42, (E)-N-[5-(3-(5-Hydroxy-1H-benzo[d]imidazol-2-yl)propanamido)pentyl]-3-[4-((E/Z)-1-(4-hydroxyphenyl)-2-phenylbut-1-enyl)phenyl]acrylamide] | – | 1.28 ± 0.58 | 25.7 | 3.81 ± 2.35 | 19.5 | 30.9 ± 8.7 | 92.0 ± 5.5 | 46.5 ± 20.7 | 8 | IC50 ([10]; incubation time 10 min): 23.3 nM; IC50 [11]: 64 nM
4 | CCC(=C(c1ccc(O)cc1)c1ccc(/C=C/C(=O)NCCCNC(=O)c2ccc(N3CCN(C(=O)CCCn4c(=S)[nH]c5ccccc5c4=O)CC3)cc2)cc1)c1ccccc1 (mixture of isomers) [Compound 17] | about 40% | 4.63 ± 1.74 | 7.1 | 18.5 ± 4.8 | 4 | 104 ± 14 | 5.5 ± 5.0 | 48 ± 12 | 94.5 | amount of the E isomer [12]: 25%; % efficacy [1 μM] ([5]; downregulation of ERα compared to fulvestrant (100%), MCF-7, 1 μM): 95%
5 | CCC(=C(c1ccc(O)cc1)c1ccc(/C=C/C(=O)NCCCCCNC(=O)CCc2nc3ccc(OC)cc3[nH]2)cc1)c1ccccc1 (mixture of isomers) [Compound 36, (E)-3-[4-((E/Z)-1-(4-Hydroxyphenyl)-2-phenylbut-1-enyl)phenyl]-N-[5-(3-(5-methoxy-1H-benzo[d]imidazol-2-yl)propanamido)pentyl]acrylamide] | – | 1.56 ± 0.63 | 21.1 | 7.84 ± 0.25 | 9.5 | 9.2 ± 3.2 | 130.0 ± 15.1 | 8.9 ± 4 | – | IC50 ([10]; incubation time 10 min): 36.3 nM; IC50 ([10]; incubation time 30 min): 153 nM; IC50 [11]: 154 nM
6 | CCC(=C(c1ccc(O)cc1)c1ccc(/C=C/C(=O)O)cc1)c1ccccc1 (mixture of isomers) [GW7604, (E/Z)-3-(4-((E)-1-(4-Hydroxyphenyl)-2-phenylbut-1-enyl)phenyl)acrylic acid, reference compound] | 68% | – | – | – | 27.1 | – | 44.3 ± 12.1 | – | – | reduction of PGC-1 binding at ERα ([10]; 1 μM, after 10 min of incubation): completely reduced; coactivator binding ([10]; 5 μM, after 30 min, ERα): 45%; repression of PGC1 binding at ERβ ([11]; 3 μM): complete repression; Emax at 1 µM ([5]; MCF7, read-out: % efficacy [1 μM]): 56%
7 | CCC(=C(c1ccc(O)cc1)c1ccc(/C=C/C(=O)NCCCNC(=O)c2ccc(N3CCN(C(=O)CCCCCCCn4c(=S)[nH]c5ccccc5c4=O)CC3)cc2)cc1)c1ccccc1 (mixture of isomers) [Compound 18] | – | 4.23 ± 1.12 | 7.8 | 6.81 ± 1.86 | 10.9 | 914 ± 50 | – | 157 ± 22 | 64 | –
8 | CC/C(=C(\c1ccc(O)cc1)c1ccc(OCCN(C)C)cc1)c1ccccc1 [4-OHT, (Z)-4-hydroxytamoxifen] | – | – | – | – | – | – | – | – | – | T/Ccorr MCF-7TamR ([1]; 10 μM, 120 h): −57%; T/Ccorr MDA-MB-231 ([8]; 10 μM, 120 h): 10%; time to cytocidal effects, MDA-MB-231 ([8]; 20 μM, time-dependent experiment): 24 h; T/Ccorr MCF-7 ([13]; 10 μM, 120 h): −55%; time to cytocidal effects, MCF-7 ([13]; 10 μM): 48 h; time to cytocidal effects, MCF-7 ([13]; 20 μM): 24 h
